Like-named read-outs stand apart in the source and are kept apart here. Marks after values point to notes of the source that are not given here. One block for each compound: values may come before it.
What was measured:
[1] = Log p, octan-1-ol / phosphate buffer partition; format: physicochemical; conditions: octan-1-ol / 6.6 mM phosphate buffer pH 7.4, 25 °C
Procedure: The hydrophobicity of the compounds was determined by measuring their partition coefficient P in a mixture of two immiscible phases—octan-1-ol and 6.6 mM phosphate buffer pH 7.4. Stock solutions (0.5 mM) were prepared in octan-1-ol (parent compounds) and in the buffer (sulfated compounds). The stock solutions (150 µL) were mixed with 150 µL of the immiscible phase in microcentrifuge tubes (1.5 mL); shaken for 2 h (750 rpm, 25 °C); and after incubation, the phases were separated. Water phases were diluted 1:1 with the mobile phase (acetonitrile/deionized water/HCO2H, 5:95:0.1; v/v) and analyzed by HPLC using the gradient G3 (see Section 3.1.3). Octan-1-ol phases were evaporated in the stream of air (70 °C), then dissolved in 10 µL of DMSO, and mixed with 90 µL of mobile phase and analyzed by HPLC. The log p values were calculated from the respective peak heights (h) using the formula log p = log(hoctanol/hbuffer). For comparison, log p values were calculated using the Molinspiration property engine v2016.10 (http://www.molinspiration.com, Molinspiration Cheminformatics, Slovensky Grob, Slovakia) (access on 26th October 2017).

[2] = molecular target: T1, aryl sulfotransferase from rat liver (AST IV) (Rattus norvegicus, UniProt P17988); experiment: Substrate specificity of AST IV (whole E. coli cells, p-NPS donor); format: in vitro ADME; set-up: key: +: isolated sulfated product(s) and/or release of p-nitrophenol (p-NP); –: no formation of p-NP and/or isolated sulfated products; conditions: whole E. coli cells expressing AST IV, 37 °C, 72 h
T1 construct: made in house; host or cells: E. coli BL21 (DE3) Gold (whole cells used as catalyst)
Procedure: The plasmid bearing astIV gene was kindly provided by Prof. L. Elling, RWTH Aachen, Germany. The enzyme was expressed in E. coli BL21 (DE3) Gold as described, with modifications reported in our previous work. Whole E. coli cells producing the enzyme, freshly prepared according to the literature, were employed in the biotransformation experiments as a catalyst.
Silybin, silybin A, silybin B, silychristin, and silydianin (separately, each 50 mg, 0.104 mmol) and p-nitrophenyl sulfate (p-NPS, 35 mg, 0.136 mmol; Sigma-Aldrich, St. Louis, MO, USA) were dissolved in 3 mL DMSO, and 2 g (wet based) of whole cells expressing AST IV resuspended in K-phosphate buffer (pH 7.5, 17 mL) were added. The reaction mixture was incubated on a rotary shaker at 37 °C for 24 h. The cells were then removed by centrifugation (30 min, 5000 rpm, 5404 R Eppendorf, Germany), a new portion of fresh cells (2 g in 15 mL, wet based, resuspended in K-phosphate buffer) were added to the supernatant and incubated for 24 h. This step was repeated once more with a total reaction time of 72 h. The reaction was monitored by HPLC and after 72 h, the reaction mixtures, containing the sulfated product(s), were purified by preparative HPLC employing Asahipak GS-310 20F (Shodex, Tokyo, Japan) column with isocratic elution with 100% methanol. The fraction containing the putative sulfated product(s) was evaporated, dissolved in 1 mL of 80% methanol, and loaded onto a Sephadex LH-20 column (15 g dry weight, 12 mm i.d.) packed and eluted with 80% methanol. Only one sulfated product was obtained; silybin B 20-O-sulfate (14.5 mg, 0.03 mmol, yield 25%), whose identity was confirmed by comparison with previously published data.

[3] = ABTS+ cation radical scavenging; format: biochemical; conditions: vitamin C equivalents, mean ± standard error
Procedure: (§1) N,N-dimethyl-p-phenylenediamine (DMPD) and 2,2′-azino-bis(3-ethylbenzothiazolin-6-sulfonic acid (ABTS) cation radical scavenging and ferric reducing antioxidant power (FRAP) were measured using kits from Bioquochem (Llanera-Asturias, Spain). Antiradical activity by 2,2-diphenyl-1-picrylhydrazyl radical scavenging assay, reducing capacity using Folin–Ciocalteau reagent (FCR), and anti-lipoperoxidant activity using inhibition of lipid peroxidation of rat liver microsomes induced by tert-butyl hydroperoxide were determined as described previously with modifications described in detail in our previous research.

[4] = Ferric reducing antioxidant power (FRAP); format: biochemical; conditions: equivalents of Fe^2+, mean ± standard error
Procedure: as §1

[5] = DMPD+ cation radical scavenging; format: biochemical; conditions: vitamin C equivalents, mean ± standard error
Procedure: as §1

[6] = Inhibition of lipoperoxidation (Lpx) induced by tert-butyl hydroperoxide; format: biochemical; conditions: rat liver microsomal membranes, mean ± standard error
Procedure: as §1

[7] = Folin–Ciocalteu reagent (FCR) reduction; format: biochemical; conditions: Folin–Ciocalteau reagent reduction, gallic acid equivalents; mean ± standard error
Procedure: as §1

DPPH radical scavenging = format: biochemical; conditions: mean ± standard error
Procedure: as §1

[8] = Stability of the isolated sulfate; format: physicochemical; conditions: after isolation
Procedure: It quickly decomposed into a mixture of at least five products and, therefore, it was not studied further.
Silydianin (150 mg, 0.311 mmol) was sulfated using the same procedure as for silybin. Silydianin-19-O-sulfate was obtained as a yellowish solid (101 mg, 58.3%). Its structure was determined by HRMS (m/z calcd. for C25H21O13 S 561.07083, found 561.07141) and NMR (see Figure S13 and Table S5, Supplementary Material).

[9] = set-up: method as in PMID 26260337, PMID 16919302; conditions: read-out: DPPH scavenging IC50; cited from earlier work

T1 sequence (P17988 whole entry): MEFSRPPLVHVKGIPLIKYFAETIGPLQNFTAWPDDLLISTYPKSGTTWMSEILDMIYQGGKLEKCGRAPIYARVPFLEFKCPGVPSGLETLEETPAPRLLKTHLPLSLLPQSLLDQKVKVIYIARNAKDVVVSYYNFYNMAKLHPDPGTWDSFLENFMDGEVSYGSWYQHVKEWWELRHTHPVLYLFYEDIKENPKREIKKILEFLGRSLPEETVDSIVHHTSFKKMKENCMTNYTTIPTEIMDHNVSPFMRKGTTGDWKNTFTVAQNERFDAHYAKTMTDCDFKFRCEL

Compound: COc1cc([C@H]2Oc3cc([C@H]4Oc5cc(O)cc(O)c5C(=O)[C@@H]4O)ccc3O[C@@H]2CO)ccc1O [Silybin A, silybin A, reference compound]
- logP at 2 h [1]: 1.52
- Formation of p-NP [2]: – ^c
- ABTS^+ [CE] [3]: 1.01 ± 0.03 ^i CE
- FRAP [Fe^2+] [4]: 0.06 ± 0.00 Fe^2+
- DMPD^+ [CE] [5]: 0.96 ± 0.01 ^n CE
- IC50 [6]: 48.6 ± 0.4 µM
- FCR [GAE] [7]: 0.33 ± 0.02 ^k GAE
- IC50 (DPPH radical scavenging): 490 ± 21 µM

Compound: COc1cc(C2C3C=C(C4Oc5cc(O)cc(O)c5C(=O)C4O)C4C2COC4(O)C3=O)ccc1OS(=O)(=O)O (centres unmarked) [Silydianin-19-O-sulfate]
- Stability of the compound [8]: unstable
- Stability of the compound ([8]; listed as silydianin-19-O-sulfate): extremely unstable

Compound: COc1cc([C@@H]2[C@H]3CO[C@@]4(O)C(=O)[C@@H]2C=C([C@H]2Oc5cc(O)cc(O)c5C(=O)[C@@H]2O)[C@@H]34)ccc1O [Silydianin]
- Formation of p-NP [2]: + ^a

Compound: O=C1c2c(O)cc(O)cc2OC(c2ccc(O)c(O)c2)C1O (centres unmarked) [taxifolin]
- IC50 [9]: 6 to 10 µM

Further lines, with some results ahead:

- logP at 2 h [1]: 2.17
- IC50 [6]: 68.6 ± 2.2 µM
- IC50 (DPPH radical scavenging): 546 ± 17 µM
Compound: COc1cc([C@@H]2Oc3cc([C@H]4Oc5cc(O)cc(O)c5C(=O)[C@@H]4O)ccc3O[C@H]2CO)ccc1O [Silybin B, silybin B, reference compound]
- Formation of p-NP [2]: + ^a
- ABTS^+ [CE] [3]: 0.97 ± 0.05 ^i CE
- FRAP [Fe^2+] [4]: 0.04 ± 0.00 ^q Fe^2+
- DMPD^+ [CE] [5]: 1.09 ± 0.01 ^n CE
- FCR [GAE] [7]: 0.36 ± 0.03 ^k GAE

- logP at 2 h [1]: 1.47
- IC50 [6]: 17.9 ± 0.7 µM
- IC50 (DPPH radical scavenging): 37.1 ± 3.1 µM
Compound: COc1cc(C2Oc3c(O)cc([C@H]4Oc5cc(O)cc(O)c5C(=O)[C@@H]4O)cc3C2CO)ccc1O (some centres unmarked) [Silychristin, reference compound]
- Formation of p-NP [2]: + ^a
- ABTS^+ [CE] [3]: 1.50 ± 0.09 CE
- FRAP [Fe^2+] [4]: 0.64 ± 0.06 Fe^2+
- DMPD^+ [CE] [5]: 1.50 ± 0.02^o CE
- DMPD^+ [CE] ([5]; listed as silychristin): 1.5 CE
- FCR [GAE] [7]: 1.13 ± 0.23 ^m GAE
